Test results published in patent US8952024B2, “Herbicidal pyrimidone derivatives” (E I du Pont de Nemours and Company, priority 2009, dated 2015).
Like-named read-outs stand apart in the source and are kept apart here.

Legend:
Assay in all cases: Test B pre-/postemergence plant response
Format in all cases: in vivo
[1] = test system: large crabgrass (Digitaria sanguinalis); conditions: for pest or weed control at 16 g/ha: 16 g ai/ha; for pest or weed control at 16 g/ha / pest or weed control at 31 g/ha / pest or weed control at 62 g/ha: read-out: Plant response rating, Crabgrass, Large; for pest or weed control at 31 g/ha: 31 g ai/ha; for pest or weed control at 62 g/ha: 62 g ai/ha
Outline: (§1)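 Each species received compound formulated in non-phytotoxic solvent with surfactant, either at planting into a loam and sand blend or as a foliar spray once plants reached 2 to 18 cm in peat-based medium. Plants stayed in the greenhouse 13 to 15 days before visual evaluation against controls, scored 0 (no effect) to 100 (complete control).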

[2] = test system: lambsquarters (Chenopodium album); conditions: for pest or weed control at 16 g/ha: 16 g ai/ha; for pest or weed control at 16 g/ha / pest or weed control at 31 g/ha / pest or weed control at 62 g/ha: read-out: Plant response rating, Lambsquarters; for pest or weed control at 31 g/ha: 31 g ai/ha; for pest or weed control at 62 g/ha: 62 g ai/ha
Outline: as §1

[3] = test system: morningglory (Ipomoea coccinea); conditions: for pest or weed control at 16 g/ha: 16 g ai/ha; for pest or weed control at 16 g/ha / pest or weed control at 31 g/ha / pest or weed control at 62 g/ha: read-out: Plant response rating, Morningglory; for pest or weed control at 31 g/ha: 31 g ai/ha; for pest or weed control at 62 g/ha: 62 g ai/ha
Outline: as §1

[4] = test system: johnsongrass (Sorghum halepense); conditions: for pest or weed control at 16 g/ha: 16 g ai/ha; for pest or weed control at 16 g/ha / pest or weed control at 31 g/ha / pest or weed control at 62 g/ha: read-out: Plant response rating, Johnsongrass; for pest or weed control at 31 g/ha: 31 g ai/ha; for pest or weed control at 62 g/ha: 62 g ai/ha
Outline: as §1

[5] = test system: green foxtail (Setaria viridis); conditions: for pest or weed control at 16 g/ha: 16 g ai/ha; for pest or weed control at 16 g/ha / pest or weed control at 31 g/ha / pest or weed control at 62 g/ha: read-out: Plant response rating, Foxtail, Green; for pest or weed control at 31 g/ha: 31 g ai/ha; for pest or weed control at 62 g/ha: 62 g ai/ha
Outline: as §1

[6] = test system: goosegrass (Eleusine indica); conditions: for pest or weed control at 16 g/ha: 16 g ai/ha; for pest or weed control at 16 g/ha / pest or weed control at 31 g/ha / pest or weed control at 62 g/ha: read-out: Plant response rating, Goosegrass; for pest or weed control at 31 g/ha: 31 g ai/ha; for pest or weed control at 62 g/ha: 62 g ai/ha
Outline: as §1

[7] = test system: pigweed (Amaranthus retroflexus); conditions: for pest or weed control at 16 g/ha: 16 g ai/ha; for pest or weed control at 16 g/ha / pest or weed control at 31 g/ha / pest or weed control at 62 g/ha: read-out: Plant response rating, Pigweed; for pest or weed control at 31 g/ha: 31 g ai/ha; for pest or weed control at 62 g/ha: 62 g ai/ha
Outline: as §1

[8] = test system: downy bromegrass (Bromus tectorum); conditions: for pest or weed control at 16 g/ha: 16 g ai/ha; for pest or weed control at 16 g/ha / pest or weed control at 31 g/ha / pest or weed control at 62 g/ha: read-out: Plant response rating, Bromegrass, Downy; for pest or weed control at 31 g/ha: 31 g ai/ha; for pest or weed control at 62 g/ha: 62 g ai/ha
Outline: as §1

wild oat (Avena fatua) = conditions: Avena fatua, post-emergence; 16 g ai/ha, Postemergence, 0 to 100 scale; read-out: Plant response rating, Oat, Wild
Outline: as §1

[9] = Digitaria sanguinalis, pre-emergence, Preemergence, scale 0 to 100 (0 no effect, 100 complete control)
[10] = Preemergence, 125 g ai/ha, 0 to 100 scale
[11] = Chenopodium album, pre-emergence, Preemergence, scale 0 to 100 (0 no effect, 100 complete control)
[12] = Ipomoea, pre-emergence, Preemergence, scale 0 to 100 (0 no effect, 100 complete control)
[13] = Sorghum halepense, pre-emergence, Preemergence, scale 0 to 100 (0 no effect, 100 complete control)
[14] = Setaria viridis, pre-emergence, Preemergence, scale 0 to 100 (0 no effect, 100 complete control)
[15] = Eleusine indica, pre-emergence, Preemergence, scale 0 to 100 (0 no effect, 100 complete control)
[16] = Amaranthus retroflexus, pre-emergence, Preemergence, scale 0 to 100 (0 no effect, 100 complete control)
[17] = Bromus tectorum, pre-emergence, Preemergence, scale 0 to 100 (0 no effect, 100 complete control)

O=C1CCCC(O)=C1C(=O)c1cnc(-c2ccccc2)n(-c2ccccc2)c1=O [Compound 2, 5-[(2-hydroxy-6-oxo-1-cyclohexen-1-yl)carbonyl]-2,3-diphenyl-4(3H)-pyrimidinone] was tested, and the pest or weed control at 16 g/ha ([1]; Digitaria sanguinalis, post-emergence, Postemergence, 0 to 100 scale) was 70%, the pest or weed control at 31 g/ha ([1]; Digitaria sanguinalis, post-emergence, Postemergence, scale 0 to 100 (0 no effect, 100 complete control)) was 80% and the pest or weed control at 62 g/ha ([1]; Digitaria sanguinalis, post-emergence, Postemergence, scale 0 (no effect) to 100 (complete control), 13 to 15 days) was 85%. The pest or weed control at 125 g/ha ([1]; Digitaria sanguinalis, post-emergence, Postemergence, 125 g ai/ha, visual rating after 13 to 15 days, scale 0 (no effect) to 100 (complete control)) was 90%, the pest or weed control at 16 g/ha [1, 9] was 0% and the pest or weed control at 31 g/ha [1, 9] was 15%. The pest or weed control at 62 g/ha ([1]; Digitaria sanguinalis, pre-emergence, Preemergence, scale 0 to 100, 0 no effect, 100 complete control) was 100%, the “Crabgrass, Large plant response rating” value [1, 10] was 100 and the pest or weed control at 16 g/ha ([2]; Chenopodium album, post-emergence, Postemergence, 0 to 100 scale) was 80%. For the same molecule, the pest or weed control at 31 g/ha ([2]; Chenopodium album, post-emergence, Postemergence, scale 0 to 100 (0 no effect, 100 complete control)) was 90%, the pest or weed control at 62 g/ha ([2]; Chenopodium album, post-emergence, Postemergence, scale 0 (no effect) to 100 (complete control), 13 to 15 days) was 90% and the pest or weed control at 125 g/ha ([2]; Chenopodium album, post-emergence, Postemergence, 125 g ai/ha, visual rating after 13 to 15 days, scale 0 (no effect) to 100 (complete control)) was 95%. It also gave a pest or weed control at 16 g/ha [2, 11] of 100%, a pest or weed control at 31 g/ha [2, 11] of 100% and a pest or weed control at 62 g/ha ([2]; Chenopodium album, pre-emergence, Preemergence, scale 0 to 100, 0 no effect, 100 complete control) of 100%. The “Lambsquarters plant response rating” value [2, 10] was 100, the pest or weed control at 16 g/ha ([3]; Ipomoea, post-emergence, Postemergence, 0 to 100 scale) was 55% and the pest or weed control at 31 g/ha ([3]; Ipomoea, post-emergence, Postemergence, scale 0 to 100 (0 no effect, 100 complete control)) was 70%. It also gave a pest or weed control at 62 g/ha ([3]; Ipomoea, post-emergence, Postemergence, scale 0 (no effect) to 100 (complete control), 13 to 15 days) of 80%, a pest or weed control at 125 g/ha ([3]; Ipomoea, post-emergence, Postemergence, 125 g ai/ha, visual rating after 13 to 15 days, scale 0 (no effect) to 100 (complete control)) of 95% and a pest or weed control at 16 g/ha [3, 12] of 0%. The pest or weed control at 31 g/ha [3, 12] was 0%, the pest or weed control at 62 g/ha ([3]; Ipomoea, pre-emergence, Preemergence, scale 0 to 100, 0 no effect, 100 complete control) was 20% and the “Morningglory plant response rating” value [3, 10] was 75. The “Johnsongrass plant response rating” value [4, 10] was 80, the pest or weed control at 16 g/ha ([4]; Sorghum halepense, post-emergence, Postemergence, 0 to 100 scale) was 75% and the pest or weed control at 31 g/ha ([4]; Sorghum halepense, post-emergence, Postemergence, scale 0 to 100 (0 no effect, 100 complete control)) was 85%. The pest or weed control at 62 g/ha ([4]; Sorghum halepense, post-emergence, Postemergence, scale 0 (no effect) to 100 (complete control), 13 to 15 days) was 90%, the pest or weed control at 125 g/ha ([4]; Sorghum halepense, post-emergence, Postemergence, 125 g ai/ha, visual rating after 13 to 15 days, scale 0 (no effect) to 100 (complete control)) was 98% and the pest or weed control at 16 g/ha [4, 13] was 0%. For the same molecule, the pest or weed control at 31 g/ha [4, 13] was 60%, the pest or weed control at 62 g/ha ([4]; Sorghum halepense, pre-emergence, Preemergence, scale 0 to 100, 0 no effect, 100 complete control) was 65% and the “Foxtail, Green plant response rating” value [5, 10] was 60. The pest or weed control at 16 g/ha ([5]; Setaria viridis, post-emergence, Postemergence, 0 to 100 scale) was 50%, the pest or weed control at 31 g/ha ([5]; Setaria viridis, post-emergence, Postemergence, scale 0 to 100 (0 no effect, 100 complete control)) was 75% and the pest or weed control at 62 g/ha ([5]; Setaria viridis, post-emergence, Postemergence, scale 0 (no effect) to 100 (complete control), 13 to 15 days) was 90%. The pest or weed control at 125 g/ha ([5]; Setaria viridis, post-emergence, Postemergence, 125 g ai/ha, visual rating after 13 to 15 days, scale 0 (no effect) to 100 (complete control)) was 100%, the pest or weed control at 16 g/ha [5, 14] was 0% and the pest or weed control at 31 g/ha [5, 14] was 0%. It also gave a pest or weed control at 62 g/ha ([5]; Setaria viridis, pre-emergence, Preemergence, scale 0 to 100, 0 no effect, 100 complete control) of 5%, a pest or weed control at 16 g/ha ([6]; Eleusine indica, post-emergence, Postemergence, 0 to 100 scale) of 80% and a pest or weed control at 31 g/ha ([6]; Eleusine indica, post-emergence, Postemergence, scale 0 to 100 (0 no effect, 100 complete control)) of 80%. The pest or weed control at 62 g/ha ([6]; Eleusine indica, post-emergence, Postemergence, scale 0 (no effect) to 100 (complete control), 13 to 15 days) was 90%, the pest or weed control at 125 g/ha ([6]; Eleusine indica, post-emergence, Postemergence, 125 g ai/ha, visual rating after 13 to 15 days, scale 0 (no effect) to 100 (complete control)) was 95% and the pest or weed control at 16 g/ha [6, 15] was 0%. For the same molecule, the pest or weed control at 31 g/ha [6, 15] was 85%, the pest or weed control at 62 g/ha ([6]; Eleusine indica, pre-emergence, Preemergence, scale 0 to 100, 0 no effect, 100 complete control) was 100% and the “Goosegrass plant response rating” value [6, 10] was 100. The pest or weed control at 16 g/ha ([7]; Amaranthus retroflexus, post-emergence, Postemergence, 0 to 100 scale) was 70%, the pest or weed control at 31 g/ha ([7]; Amaranthus retroflexus, post-emergence, Postemergence, scale 0 to 100 (0 no effect, 100 complete control)) was 85% and the pest or weed control at 62 g/ha ([7]; Amaranthus retroflexus, post-emergence, Postemergence, scale 0 (no effect) to 100 (complete control), 13 to 15 days) was 90%. The pest or weed control at 125 g/ha ([7]; Amaranthus retroflexus, post-emergence, Postemergence, 125 g ai/ha, visual rating after 13 to 15 days, scale 0 (no effect) to 100 (complete control)) was 95%, the pest or weed control at 16 g/ha [7, 16] was 98% and the pest or weed control at 31 g/ha [7, 16] was 100%. For the same molecule, the pest or weed control at 62 g/ha [7, 16] was 100%, the “Pigweed plant response rating” value [7, 10] was 100 and the pest or weed control at 16 g/ha ([8]; Bromus tectorum, post-emergence, Postemergence, 0 to 100 scale) was 20%. For the same molecule, the pest or weed control at 31 g/ha ([8]; Bromus tectorum, post-emergence, Postemergence, scale 0 to 100 (0 no effect, 100 complete control)) was 35%, the pest or weed control at 62 g/ha ([8]; Bromus tectorum, post-emergence, Postemergence, scale 0 (no effect) to 100 (complete control), 13 to 15 days) was 60% and the pest or weed control at 125 g/ha ([8]; Bromus tectorum, post-emergence, Postemergence, 125 g ai/ha, visual rating after 13 to 15 days, scale 0 (no effect) to 100 (complete control)) was 80%. For the same molecule, the pest or weed control at 16 g/ha [8, 17] was 0%, the pest or weed control at 31 g/ha [8, 17] was 0% and the pest or weed control at 62 g/ha ([8]; Bromus tectorum, pre-emergence, Preemergence, scale 0 to 100, 0 no effect, 100 complete control) was 0%. The “Bromegrass, Downy plant response rating” value [8, 10] was 5 and the pest or weed control at 16 g/ha (wild oat (Avena fatua)) was 5%.
